Experimental data from patent US20250136649A1, “HONEY TRUFFLE SWEETENER (HTS) VARIANTS” (MYCOTECHNOLOGY, INC., priority 2023, published 2025).
Read-outs that look alike come from different tables or passages of the source. Blank lines part the entries; values can stand above or below the molecule they belong to.

How the values were obtained:
sweet taste response = experiment: Concentration-response functions for sweet taste (Opertech Bio); assay type: in vivo; conditions: for Relative to Sucrose (mM): equivalency to sucrose on a molar basis; for Relative to Sucrose (mg/ml): equivalency to sucrose on a weight basis; for EC50: half-maximal sweet taste response
Experimental: Each data point in the curves for mycodulcein, aspartame, thaumatin, rebaudioside A was calculated as the average across 32 replicates and averaged across 16 replicates for the sucrose curve; error bars are SEM. Points for water and sucrose controls were similarly calculated as the average across 128 and 64 replicates, respectively. Curves were fit by non-linear regression.
Opertech Bio (Philadelphia, PA) performed a quantitative characterization of the concentration-dependence of the taste properties of the purified his-tagged mycodulcein HTS (SEQ ID NO:141 with His-tag, SEQ ID NO:142) obtained from E. coli as described in Example 5 and purified as described in Example 4. The sweet-taste potency and relative efficacy of mycodulcein (HTS) was compared with sucrose and with other sweeteners thaumatin, rebaudioside A, and aspartame. Control standards were solutions of 200 mM sucrose, 100 mM NaCl, 0.5 mM quinine, and 10 mM citric acid. […] Each data point in the curves for mycodulcein, aspartame, thaumatin, and rebaudioside A was calculated as the average across 32 replicates and averaged across 16 replicates for the sucrose curve; error bars are SEM. Points for water and sucrose controls were similarly calculated as the average across 128 and 64 replicates, respectively. Curves were fit by non-linear regression.
The concentrations that elicit half-maximal sweet taste response (EC50s, or potencies) were derived from the nonlinear regression. […] Also provided are the equivalencies to sucrose on a molar basis and on a weight basis.

sweet sensation = experiment: CATA time intensity of the sweet sensation in water; assay type: in vivo, human
Experimental: Evaluation of thaumatin, sucrose, and his-tagged mycodulcein (HTS) was carried out using a CATA (click all that apply) time intensity of the sweet sensation of named analytes in water at 0.045 mg/mL for proteins and 10% sucrose. Methodology: Time Intensity Technique; Data collection software: EyeQuestion, responses recorded every 2.57 seconds; Scaling Method: a 15-point sweet scale, e.g., score 5=5% sucrose, score 10=10% sucrose; Evaluation Protocol: small volume sip, tilt and spit test. There were 3-6 panelists and 2 replicates. All samples were blinded and presented with randomized 3-digit codes. Training Strategies: An intense training on sweet scale over 6 weeks on 15-point sweet scale to confidently assign sweet values. Due to unique sweet behavioral patterns, it is necessary to train time intensity principles over 3 weeks. Samples were tasted with a stopwatch to note times and help reach a consensus. # of Panelists: 3-6, # of replications: 2. All samples were blinded and presented with randomized 3-digit codes. Statistical analysis: due to the small # of panelists, a statistical analysis cannot be performed.

sweet taste = conditions: cited from earlier work; for potency curve multiplier relative to sucrose: linear potency curve similar to sucrose (DuBois 1991)
[1] = tested on: sweetness and flavor perception; experiment: Tasting of HTS sweetener blends in citric acid solution, lemon/lime soda, almond milk, chocolate spread; assay type: in vivo, human
Experimental: Sucrose is the standard for sweetness intensity perception in the food and beverage industry. […] With regard to the following Examples 18-38, sucrose equivalent (SE) values of non-sucrose sweeteners were calculated from Dubois et al. (1991) and cross referenced with other studies (Wee, M., Tan, V., & Forde, C. (2018). A Comparison of Psychophysical Dose-Response Behaviour across 16 Sweeteners. Nutrients, 10 (11), 1632).
DE Walters, FT Orthoefer, GE DuBois, pp. 261-276. Washington, DC: Am. Chem. Soc).
An HTS sweetness concentration response curve was developed. These values were used to determine approximate sucrose equivalents for the following blending examples (Examples 18-37).
HTS ((0.0 mg/mL, 0.007 mg/mL, 0.015 mg/mL and 0.035 mg/mL) and sucrose (8% w/w, 6% w/w, 4% w/w, and 2% w/w (respectively)) were added to a citric acid solution. The sweetener mixture was compared to a control with only sucrose added to the matrix. The sweetener mix was expected to be as sweet as or sweeter than the sucrose control for this matrix. Of total perceived sweetness intensity in each of the experimental samples in Table 11, 75% comes from sucrose and 25% comes from HTS, 50% comes from sucrose and 50% comes from HTS, 25% comes from sucrose and 75% comes from HTS, respectively.
HTS ((0.0 mg/mL, 0.008 mg/mL, 0.023 mg/mL and 0.064 mg/mL) and sucrose (10% w/w, 7.5% w/w, 5% w/w, and 2.5% w/w (respectively)) were added to a lemon/lime soda. The sweetener mixture was compared to a control with only sucrose added to the matrix. The sweetener mix was expected to be as sweet as or sweeter than the sucrose control for this matrix. Of total perceived sweetness intensity in each of the experimental samples in Table 12, 75% comes from sucrose and 25% comes from HTS, 50% comes from sucrose and 50% comes from HTS, 25% comes from sucrose and 75% comes from HTS, respectively.
HTS ((0.0 mg/mL, 0.005 mg/mL, 0.007 mg/mL and 0.010 mg/mL) and sucrose (4% w/w, 3.0% w/w, 2% w/w, and 1.0% w/w (respectively)) were added to an unsweetened almond milk. The sweetener mixture was compared to a control with only sucrose added to the matrix. The sweetener mix was expected to be as sweet as or sweeter than the control for this matrix. Of total perceived sweetness intensity in each of the experimental samples in Table 13, 75% comes from sucrose and 25% comes from HTS, 50% comes from sucrose and 50% comes from HTS, 25% comes from sucrose and 75% comes from HTS, respectively.
HTS ((0.0 mg/mL, 0.008 mg/mL, 0.023 mg/mL and 0.064 mg/mL) and sucrose (45% w/w, 33.8% w/w, 23% w/w, and 11.3% w/w (respectively)) were added to a chocolate spread. The sweetener mixture was compared to a control with only sucrose added to the matrix. The sweetener mix was expected to be as sweet as or sweeter than the control for this matrix. Of total perceived sweetness intensity in each of the experimental samples in Table 14, 75% comes from sucrose and 25% comes from HTS, 50% comes from sucrose and 50% comes from HTS, 25% comes from sucrose and 75% comes from HTS, respectively.
HTS ((0.0 mg/mL, 0.007 mg/mL, 0.015 mg/mL and 0.035 mg/mL) and erythritol (11.43% w/w, 8.57% w/w, 5.71% w/w, and 2.86% w/w (respectively)) were added to a citric acid solution. The sweetener mixture was compared to a control with only erythritol added to the matrix. The sweetener mix was expected to be as sweet as or sweeter than the control for this matrix. Of total perceived sweetness intensity in each of the experimental samples in Table 15, 75% comes from erythritol and 25% comes from HTS, 50% comes from erythritol and 50% comes from HTS, 25% comes from erythritol and 75% comes from HTS, respectively.

perception of the flavor = experiment: Tasting of HTS flavor modifying compositions in a mock beverage matrix; assay type: in vivo, human; conditions: pH about 3, 0.25% w/w lemon/lime flavor, HTS 0.004 mg/mL
Experimental: HTS (0.004 mg/mL) and sucrose (10% w/w concentration) were added to a mock beverage matrix (citric acid, a flavor and carbonation). […] HTS and sucrose were added to hit a target of 10% w/w sucrose equivalent sweetness. The HTS/sucrose mixture was compared to an unsweetened control, an unsweetened control+0.004 mg/mL HTS, and a sucrose sweetened control (10% w/w concentration of sucrose).
(§1) HTS (0.004 mg/mL) and erythritol (13.3% w/w concentration) were added to a mock beverage matrix (citric acid, a flavor, and carbonation). […] HTS and erythritol were added to hit a target of 10% w/w sucrose equivalent sweetness. The HTS/erythritol mixture was compared to an unsweetened control, an unsweetened control+0.004 mg/mL HTS, and an erythritol sweetened control (13.3% w/w concentration).
as §1, with “sucralose (0.0387%” for “erythritol (13.3%”, “sucralose” for “erythritol”, “HTS/sucralose” for “HTS/erythritol”, “a sucralose” for “an erythritol”, “(0.0387%” for “(13.3%”
HTS (0.004 mg/mL) and stevia (0.0395% w/w concentration) were added to a mock beverage matrix (citric acid, a flavor, and carbonation). […] HTS and stevia were added to hit a target of 10% w/w sucrose equivalent sweetness. […]

[2] = nonlinear regression, read-out: EC50 (molar units)

- EC50 (sweet taste response): 41.1 µg/mL
- EC50 (sweet taste response; [2]): 42 µM
Molecule: C=C1C[C@@]23CC[C@H]4[C@@](C)(CCC[C@@]4(C)C(=O)O[C@@H]4O[C@H](CO)[C@@H](O)[C@H](O)[C@H]4O)[C@@H]2CC[C@]1(O[C@@H]1O[C@H](CO)[C@@H](O)[C@H](O[C@@H]2O[C@H](CO)[C@@H](O)[C@H](O)[C@H]2O)[C@H]1O[C@@H]1O[C@H](CO)[C@@H](O)[C@H](O)[C@H]1O)C3 [REB, rebaudioside A]
- Relative to Sucrose (mM) (sweet taste response): 857
- Relative to Sucrose (mg/ml) (sweet taste response): 300

- EC50 (sweet taste response): 6.6 µg/mL
- EC50 (sweet taste response; [2]): 0.3 µM
Molecule: thaumatin [THN]
- Relative to Sucrose (mM) (sweet taste response): 120000
- Relative to Sucrose (mg/ml) (sweet taste response): 1865
- intensity when sucrose reaches threshold level (sweet sensation; 0.045 mg/mL in water): low-moderate intensity
- slope of time intensity curve (sweet sensation; 0.045 mg/mL in water vs 10% sucrose, longer peak time and more gradual/longer decline): flatter slope
- maximum intensity (Imax) higher than sucrose (sweet sensation; 0.045 mg/mL protein in water vs 10% sucrose): approximately 1 point on the 15 point scale
- potency, sweeter than sucrose on a molar basis (sweet sensation; time intensity experiment): approximately 120,000 ×
- potency, sweeter than sucrose on a weight basis (sweet sensation; time intensity experiment): ~3000 ×
- times sweeter than sucrose on a gram basis (sweet taste; background): 3000 times

Molecule: brazzein (QDKCKKVYENYPVSKCQLANQCNYDCKLDKHARSGECFYDEKRNLQCICDYCEY; UniProt P56552 1-54, looked up) [sweet protein]
- times sweeter than sucrose on a gram basis (sweet taste; background): 500 times

Molecule: monellin
- times sweeter than sucrose on a molar basis (sweet taste; background): 100,000 times

Molecule: OC[C@H]1O[C@@](CO)(O[C@H]2O[C@H](CO)[C@@H](O)[C@H](O)[C@H]2O)[C@@H](O)[C@@H]1O [SUC, sucrose]
- Observations ([1]; almond milk, sucrose w/w / HTS mg/mL: control 4%/0.0, 75/25 3.0%/0.005, 50/50 2%/0.007, 25/75 1.0%/0.010): Pleasantly sweetened almond milk, creamy
- Observations ([1]; citric acid solution, sucrose w/w / HTS mg/mL: control 8%/0.0, 75/25 6%/0.007, 50/50 4%/0.015, 25/75 2%/0.035): Reminiscent of sweet dessert and ice
- Observations ([1]; lemon/lime soda, sucrose w/w / HTS mg/mL: control 10%/0.0, 75/25 7.5%/0.008, 50/50 5%/0.023, 25/75 2.5%/0.064): Good, sweet to sour balance and pleasant

Molecule: O=C(CO)C(O)C(O)C(O)CO (stereo not shown) [Allulose, allulose]
- Observations ([1]; lemon/lime soda, allulose w/w / HTS mg/mL: control 14.3%/0.0, 50/50 7.14%/0.023): Muted citrus flavor and sweetness intensity.
- potency curve multiplier relative to sucrose (sweet taste): 0.7 ×

Molecule: OC[C@@H](O)[C@@H](O)CO [Erythritol, erythritol]
- Observations (perception of the flavor; erythritol 13.30% w/w): More sour, bitter, mineral, mouth drying,
- Observations ([1]; chocolate spread, erythritol w/w / HTS mg/mL: control 45%/0.0, 75/25 33.8%/0.008, 50/50 23%/0.023, 25/75 11.3%/0.064): Brief initial sweetness, mouth cooling, cocoa
- Observations ([1]; citric acid solution, erythritol w/w / HTS mg/mL: control 11.43%/0, 75/25 8.57%/0.007, 50/50 5.71%/0.015, 25/75 2.86%/0.035): Reduced sour intensity compared to sucrose
- Observations ([1]; lemon/lime soda, erythritol w/w / HTS mg/mL: control 13.30%/0.0, 75/25 9.31%/0.008, 50/50 6.90%/0.023, 25/75 3.10%/0.064): Reduced citrus flavor intensity. Strong mouth
- potency curve multiplier relative to sucrose (sweet taste): 0.7 ×

Molecule: OC[C@H]1O[C@H](O[C@]2(CCl)O[C@H](CCl)[C@@H](O)[C@@H]2O)[C@H](O)[C@@H](O)[C@H]1Cl [Sucralose, sucralose]
- Observations (perception of the flavor; sucralose 0.0387% w/w): Sweet linger, little flavor carry over
- Observations ([1]; almond milk, sucralose w/w / HTS mg/mL: control 0.0053%/0.0, 75/25 0.0037%/0.005, 50/50 0.0023%/0.007, 25/75 0.0011%/0.010): Pleasantly sweetened almond milk. Little
- Observations ([1]; chocolate spread, sucralose w/w / HTS mg/mL: control 0.0387%/0.0, 75/25 0.0247%/0.008, 50/50 0.0096%/0.023, 25/75 0.0030%/0.064): Reduced cocoa flavor intensity compared to sucrose
- Observations ([1]; citric acid solution, sucralose w/w / HTS mg/mL: control 0.0170%/0.0, 75/25 0.0100%/0.007, 50/50 0.0053%/0.015, 25/75 0.0023%/0.035): Intense initial sweetness that overpowers acidity.
- Observations ([1]; lemon/lime soda, sucralose w/w / HTS mg/mL: control 0.0387%/0.0, 75/25 0.0247%/0.008, 50/50 0.0096%/0.023, 25/75 0.0030%/0.064): Intense initial sourness. Strong sweet aftertaste.
